ChEMBL document CHEMBL3045088, “Synthesis and cytotoxic activity of genistein derivatives” (2010)

Assays:
Assay type in all cases: functional
HL-60 = assay: Growth inhibition of Homo sapiens (human) HL60 cells by MTT assay
HT-29 = assay: Growth inhibition of Homo sapiens (human) HT-29 cells by MTT assay
SGC-7901 = assay: Growth inhibition of Homo sapiens (human) SGC7901 cells by MTT assay

Row | SMILES | GI (HL-60) | GI (HT-29) | GI (SGC-7901)
1 | CCCCCCCOc1ccc(-c2coc3cc(OC(F)F)cc(OCCCCCCC)c3c2=O)cc1 [4',5-DI-N-HEPTOXY-7-GEM-DIFLUOROMETHYLENATED GENISTEIN] | 1.41 µM | 5.25 µM | 3.39 µM
2 | CCOc1ccc(-c2coc3cc(OC(F)F)cc(OCC)c3c2=O)cc1 [4',5-DIETHOXY-7-GEM-DIFLUOROMETHYLENATED GENISTEIN] | 1.75 µM | 11.2 µM | 5.51 µM
3 | O=c1c(-c2ccc(OC(F)F)cc2)coc2cc(OC(F)F)cc(O)c12 [4',7-DI-GEM-DIFLUOROMETHYLENATED GENISTEIN] | 5.5 µM | 5.35 µM | 5.54 µM
4 | COc1cc(O)c2c(=O)c(-c3ccc(O)cc3)coc2c1 [PRUNETIN] | 4.35 µM | 5.11 µM | 3.94 µM
5 | CCCOc1ccc(-c2coc3cc(OC(F)F)cc(OCCC)c3c2=O)cc1 [4',5-DI-N-PROPOXY-7-GEM-DIFLUOROMETHYLENATED GENISTEIN] | 0.54 µM | 2.5 µM | 2.15 µM
6 | CC(=O)Oc1cc(O)c2c(=O)c(-c3ccc(O)cc3)coc2c1 [7-ACETOXY-4',5-DIHYDROXYGENISTEIN] | 4.95 µM | 4.21 µM | 8.11 µM
7 | O=c1c(-c2ccc(OCc3ccccc3)cc2)coc2cc(OC(F)F)cc(OCc3ccccc3)c12 [4',5-DIBENZYLOXY-7-GEM-DIFLUOROMETHYLENATED GENISTEIN] | 1.29 µM | 2.82 µM | 4.24 µM
8 | COc1ccc(-c2coc3cc(OC)cc(O)c3c2=O)cc1 [4',7-DIMETHOXY-5-HYDROXYGENISTEIN] | 5.14 µM | 4.18 µM | 7.78 µM
9 | CC(=O)Oc1ccc(-c2coc3cc(OC(C)=O)cc(O)c3c2=O)cc1 [4',7-DIACETOXY-5-HYDROXYGENISTEIN] | 5.86 µM | 19.4 µM | 11.24 µM
10 | COc1ccc(-c2coc3cc(OC(F)F)cc(OC)c3c2=O)cc1 [4',5-DIMETHOXY-7-GEM-DIFLUOROMETHYLENATED GENISTEIN] | 4.61 µM | 9.83 µM | 6.41 µM
11 | CCCCCCCCOc1ccc(-c2coc3cc(OC(F)F)cc(OCCCCCCCC)c3c2=O)cc1 [4',5-DI-N-OCTOXY-7-GEM-DIFLUOROMETHYLENATED GENISTEIN] | 0.47 µM | 1.86 µM | 1.64 µM
12 | CCCCCCCCCCOc1ccc(-c2coc3cc(OC(F)F)cc(OCCCCCCCCCC)c3c2=O)cc1 [4',5-DI-N-DECOXY-7-GEM-DIFLUOROMETHYLENATED GENISTEIN] | 1.63 µM | 14.26 µM | 3.3 µM
13 | O=c1c(-c2ccc(O)cc2)coc2cc(OC(F)F)cc(O)c12 [7-GEM-DIFLUOROMETHYLENATED GENISTEIN] | 3.53 µM | 4.56 µM | 4.59 µM
14 | CCCCCCCCCCOc1ccc(-c2coc3cc(OCCCCCCCCCC)cc(O)c3c2=O)cc1 [4',7-DIDECYLOXY-5-HYDROXYGENISTEIN] | 3.09 µM | 11.6 µM | 4.27 µM
15 | C=CCOc1ccc(-c2coc3cc(OCC=C)cc(O)c3c2=O)cc1 [4',7-DIALLYLOXY-5-HYDROXYGENISTEIN] | 3.44 µM | 14.2 µM | 6.51 µM
16 | O=c1c(-c2ccc(O)cc2)coc2cc(O)cc(O)c12 [GENISTEIN] | 4.82 µM | 4.11 µM | 5.78 µM
17 | CCCCCCCCOc1ccc(-c2coc3cc(OCCCCCCCC)cc(O)c3c2=O)cc1 [4',7-DIOCTYLOXY-5-HYDROXYGENISTEIN] | 1.62 µM | 10.8 µM | 4.82 µM
